# From PubChem BioAssay (NCI)
#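 Step 1: Grow cells in 96-well plates. Step 2: Expose to compound for 48 hours at 5 concentrations. Step 3: Interpolate endpoints linearly; if unreached, use highest concentration. TGI marks complete inhibition of growth.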
# Tests used:
# Experiment in all cases: NCI anticancer screen, dose series, 48 h
# M14 melanoma = test system: M14 melanoma
# CAKI-1 renal = test system: CAKI-1 renal
# SN12C renal = test system: SN12C renal
# UACC-62 melanoma = test system: UACC-62 melanoma
# HCT-15 colon = test system: HCT-15 colon
# NCI-H23 lung = test system: NCI-H23 lung
# SF-295 CNS = test system: SF-295 CNS
# NCI-H522 lung = test system: NCI-H522 lung
# A498 renal = test system: A498 renal
# HL-60(TB) leukemia = test system: HL-60(TB) leukemia
# HOP-62 NSCLC = test system: HOP-62 NSCLC
# HS 578T breast = test system: HS 578T breast
# OVCAR-8 ovarian = test system: OVCAR-8 ovarian
# RPMI-8226 leukemia = test system: RPMI-8226 leukemia
# NCI/ADR-RES ovarian = test system: NCI/ADR-RES ovarian
# KM12 colon = test system: KM12 colon
# CCRF-CEM leukemia = test system: CCRF-CEM leukemia
# SNB-75 CNS = test system: SNB-75 CNS
# U251 CNS = test system: U251 CNS
# MALME-3M melanoma = test system: MALME-3M melanoma
# MDA-N = test system: MDA-N
# HT29 colon = test system: HT29 colon
# PC-3 prostate = test system: PC-3 prostate
# SK-MEL-2 melanoma = test system: SK-MEL-2 melanoma
# HOP-92 NSCLC = test system: HOP-92 NSCLC
# MOLT-4 leukemia = test system: MOLT-4 leukemia
# IGROV1 ovarian = test system: IGROV1 ovarian
# OVCAR-3 ovarian = test system: OVCAR-3 ovarian
# DU-145 prostate = test system: DU-145 prostate
# T-47D breast = test system: T-47D breast
# SR leukemia = test system: SR leukemia
# SK-OV-3 ovarian = test system: SK-OV-3 ovarian
# MDA-MB-435 = test system: MDA-MB-435
# COLO 205 colon = test system: COLO 205 colon
# SK-MEL-28 melanoma = test system: SK-MEL-28 melanoma
# SK-MEL-5 melanoma = test system: SK-MEL-5 melanoma
# NCI-H460 lung = test system: NCI-H460 lung
# MDA-MB-231 breast = test system: MDA-MB-231 breast
# HCT-116 colon = test system: HCT-116 colon
# NCI-H226 lung = test system: NCI-H226 lung
# 786-0 renal = test system: 786-0 renal
# HCC-2998 colon = test system: HCC-2998 colon
# ACHN renal = test system: ACHN renal
# RXF 393 renal = test system: RXF 393 renal
# OVCAR-4 ovarian = test system: OVCAR-4 ovarian
# OVCAR-5 ovarian = test system: OVCAR-5 ovarian
# LOX IMVI melanoma = test system: LOX IMVI melanoma
# SNB-19 CNS = test system: SNB-19 CNS
# EKVX NSCLC = test system: EKVX NSCLC
# SF-268 CNS = test system: SF-268 CNS
# UO-31 renal = test system: UO-31 renal
# SW-620 colon = test system: SW-620 colon
# UACC-257 melanoma = test system: UACC-257 melanoma
# MCF7 breast = test system: MCF7 breast
# A549 NSCLC = test system: A549 NSCLC
# TK-10 renal = test system: TK-10 renal
# SF-539 CNS = test system: SF-539 CNS
smiles,measurement,setting,value
S=C(/C=C1\SC(=Nc2ccccc2)C(=Nc2ccccc2)N1c1ccccc1)Nc1ccccc1,TGI,M14 melanoma,> 100 µM
same,TGI,CAKI-1 renal,> 100 µM
same,TGI,SN12C renal,> 100 µM
same,TGI,UACC-62 melanoma,> 100 µM
same,TGI,HCT-15 colon,> 100 µM
same,TGI,NCI-H23 lung,> 100 µM
same,TGI,SF-295 CNS,> 100 µM
same,TGI,NCI-H522 lung,> 100 µM
same,TGI,A498 renal,> 100 µM
same,TGI,HL-60(TB) leukemia,> 100 µM
same,TGI,HOP-62 NSCLC,> 100 µM
same,TGI,HS 578T breast,> 100 µM
same,TGI,OVCAR-8 ovarian,> 100 µM
same,TGI,RPMI-8226 leukemia,> 100 µM
same,TGI,NCI/ADR-RES ovarian,> 100 µM
same,TGI,KM12 colon,> 100 µM
same,TGI,CCRF-CEM leukemia,> 100 µM
same,TGI,SNB-75 CNS,> 100 µM
same,TGI,U251 CNS,> 100 µM
same,TGI,MALME-3M melanoma,> 100 µM
same,TGI,MDA-N,> 100 µM
same,TGI,HT29 colon,> 100 µM
same,TGI,PC-3 prostate,> 100 µM
same,TGI,SK-MEL-2 melanoma,> 100 µM
same,TGI,HOP-92 NSCLC,> 100 µM
same,TGI,MOLT-4 leukemia,> 100 µM
same,TGI,IGROV1 ovarian,> 100 µM
same,TGI,OVCAR-3 ovarian,> 100 µM
same,TGI,DU-145 prostate,> 100 µM
same,TGI,T-47D breast,> 100 µM
same,TGI,SR leukemia,> 100 µM
same,TGI,SK-OV-3 ovarian,> 100 µM
same,TGI,MDA-MB-435,> 100 µM
same,TGI,COLO 205 colon,> 100 µM
same,TGI,SK-MEL-28 melanoma,> 100 µM
same,TGI,SK-MEL-5 melanoma,> 100 µM
same,TGI,NCI-H460 lung,> 100 µM
same,TGI,MDA-MB-231 breast,> 100 µM
same,TGI,HCT-116 colon,> 100 µM
COP(C)(=O)C1=CCN(C(=O)OCC[Si](C)(C)C)CC1 (stereo not given),TGI,M14 melanoma,> 100 µM
same,TGI,CAKI-1 renal,> 100 µM
same,TGI,NCI-H226 lung,> 100 µM
same,TGI,UACC-62 melanoma,> 100 µM
same,TGI,HCT-15 colon,> 100 µM
same,TGI,NCI-H23 lung,> 100 µM
same,TGI,SF-295 CNS,> 100 µM
same,TGI,NCI-H522 lung,> 100 µM
same,TGI,A498 renal,> 100 µM
same,TGI,786-0 renal,> 100 µM
same,TGI,HCC-2998 colon,> 100 µM
same,TGI,HOP-62 NSCLC,> 100 µM
same,TGI,ACHN renal,> 100 µM
same,TGI,RXF 393 renal,> 100 µM
same,TGI,OVCAR-4 ovarian,> 100 µM
same,TGI,HS 578T breast,> 100 µM
same,TGI,OVCAR-5 ovarian,> 100 µM
same,TGI,OVCAR-8 ovarian,> 100 µM
same,TGI,RPMI-8226 leukemia,> 100 µM
same,TGI,NCI/ADR-RES ovarian,> 100 µM
same,TGI,LOX IMVI melanoma,> 100 µM
same,TGI,SNB-19 CNS,> 100 µM
same,TGI,KM12 colon,> 100 µM
same,TGI,CCRF-CEM leukemia,> 100 µM
same,TGI,EKVX NSCLC,> 100 µM
same,TGI,SNB-75 CNS,> 100 µM
same,TGI,U251 CNS,> 100 µM
same,TGI,MALME-3M melanoma,> 100 µM
same,TGI,MDA-N,> 100 µM
same,TGI,HT29 colon,> 100 µM
same,TGI,PC-3 prostate,> 100 µM
same,TGI,SF-268 CNS,> 100 µM
same,TGI,SK-MEL-2 melanoma,> 100 µM
same,TGI,HOP-92 NSCLC,> 100 µM
same,TGI,IGROV1 ovarian,> 100 µM
same,TGI,OVCAR-3 ovarian,> 100 µM
same,TGI,UO-31 renal,> 100 µM
same,TGI,DU-145 prostate,> 100 µM
same,TGI,SW-620 colon,> 100 µM
same,TGI,T-47D breast,> 100 µM
same,TGI,UACC-257 melanoma,> 100 µM
same,TGI,SK-OV-3 ovarian,> 100 µM
same,TGI,MDA-MB-435,> 100 µM
same,TGI,COLO 205 colon,> 100 µM
same,TGI,SK-MEL-28 melanoma,> 100 µM
same,TGI,SK-MEL-5 melanoma,> 100 µM
same,TGI,MCF7 breast,> 100 µM
same,TGI,A549 NSCLC,> 100 µM
same,TGI,NCI-H460 lung,> 100 µM
same,TGI,MDA-MB-231 breast,> 100 µM
same,TGI,TK-10 renal,> 100 µM
c1ccc(-c2cc(-c3cccs3)c(-c3cccs3)s2)cc1,TGI,M14 melanoma,54.5 µM
same,TGI,CAKI-1 renal,> 100 µM
same,TGI,SN12C renal,> 100 µM
same,TGI,NCI-H226 lung,> 100 µM
same,TGI,UACC-62 melanoma,> 100 µM
same,TGI,HCT-15 colon,70.1 µM
same,TGI,NCI-H23 lung,60.2 µM
same,TGI,SF-295 CNS,> 100 µM
same,TGI,NCI-H522 lung,64.8 µM
same,TGI,A498 renal,> 100 µM
same,TGI,786-0 renal,> 100 µM
same,TGI,HL-60(TB) leukemia,88.5 µM
same,TGI,HCC-2998 colon,67.8 µM
same,TGI,HOP-62 NSCLC,> 100 µM
same,TGI,ACHN renal,> 100 µM
same,TGI,RXF 393 renal,47.3 µM
same,TGI,OVCAR-4 ovarian,62.6 µM
same,TGI,HS 578T breast,> 100 µM
same,TGI,OVCAR-5 ovarian,> 100 µM
same,TGI,OVCAR-8 ovarian,> 100 µM
same,TGI,RPMI-8226 leukemia,79 µM
same,TGI,NCI/ADR-RES ovarian,> 100 µM
same,TGI,KM12 colon,32.9 µM
same,TGI,CCRF-CEM leukemia,57.9 µM
same,TGI,EKVX NSCLC,> 100 µM
same,TGI,SNB-75 CNS,> 100 µM
same,TGI,U251 CNS,> 100 µM
same,TGI,SF-539 CNS,> 100 µM
same,TGI,MDA-N,> 100 µM
same,TGI,HT29 colon,> 100 µM
same,TGI,SF-268 CNS,> 100 µM
same,TGI,HOP-92 NSCLC,> 100 µM
same,TGI,MOLT-4 leukemia,63.1 µM
same,TGI,IGROV1 ovarian,> 100 µM
same,TGI,OVCAR-3 ovarian,> 100 µM
same,TGI,UO-31 renal,72.3 µM
same,TGI,DU-145 prostate,> 100 µM
same,TGI,SW-620 colon,> 100 µM
same,TGI,T-47D breast,58.4 µM
same,TGI,SR leukemia,52.3 µM
same,TGI,UACC-257 melanoma,> 100 µM
same,TGI,SK-OV-3 ovarian,> 100 µM
same,TGI,MDA-MB-435,75.5 µM
same,TGI,COLO 205 colon,> 100 µM
same,TGI,SK-MEL-5 melanoma,> 100 µM
same,TGI,MCF7 breast,41 µM
same,TGI,NCI-H460 lung,> 100 µM
same,TGI,MDA-MB-231 breast,> 100 µM
same,TGI,HCT-116 colon,> 100 µM
same,TGI,TK-10 renal,> 100 µM
